# Patent publication US4997652A, “Biodegradable ocular implants” (priority 1989, dated 1991)
# “And” between values parts separate entries of the source, which are not always exact repeats. Equal values may be shown once. Read-outs that look alike come from different tables or passages of the source.
# What was measured:
# [1] = in vivo; parameters: species or system New Zealand white rabbits; settings: rabbit
# Experimental: 1. 50 μg/0.1 ml doxorubicin was injected into the AC of 10 New Zealand white rabbits. The AC was tapped for doxorubicin assay.
# [2] = Residual vitreous doxorubicin after injection of doxorubicin into the PC; format: in vivo, rabbits
# Experimental: 1. 50 μg/0.1 ml doxorubicin was injected into the posterior chamber (PC) of each of 10 rabbits. The contralateral eye served as control.
# [3] = tested on: eye; experiment: Ocular toxicity observation after AC injection of unencapsulated doxorubicin; format: in vivo, New Zealand white rabbits
# Experimental: 2. 50 μg/0.10 ml doxorubicin was injected into the […] in each of two rabbits. The contralateral eye was given 0.10 ml of normal saline.
# [4] = tested on: eye; experiment: Clinical observation of eye after PC injection of doxorubicin; format: in vivo, rabbits; settings: free drug
# Experimental: 2. 50 μg/0.10 ml of doxorubicin was injected into one eye of two animals for clinical observation for one week. Saline control was injected into the contralateral eye.
# [5] = 50 ug into PC right eye, free drug, 0 hours
structure (smiles),measurement,setting,value
COc1cccc2c1C(=O)c1c(O)c3c(c(O)c1C2=O)C[C@@](O)(C(=O)CO)C[C@@H]3O[C@H]1C[C@H](N)[C@H](O)[C@H](C)O1 [doxorubicin],half-life,[1],~1 h
same,"Residual vitreous doxorubicin, Mean ± SD",[2]; [5],8.55 ± 0.24 µg/mL
same,"Residual vitreous doxorubicin, single sample",[2]; [5],8.40 µg/mL and 8.74 µg/mL
same,"Residual vitreous doxorubicin, single sample","[2]; 50 ug into PC right eye, free drug, 2 hours, 120 min",4.65 µg/mL
same,"Residual vitreous doxorubicin, single sample","[2]; 50 ug into PC right eye, free drug, 4 hours, 240 min",3.4 µg/mL
same,"Residual vitreous doxorubicin, single sample","[2]; 50 ug into PC right eye, free drug, 8 hours, 480 min",0.75 µg/mL
same,"Residual vitreous doxorubicin, single sample","[2]; 50 ug into PC right eye, free drug, 16 hours, 960 min",0.21 µg/mL
same,concentration at 2 h,"[2]; rabbit, vitreous, 0.05 mg, 50 ug into PC right eye, free drug, 2 hours, read-out: Residual vitreous doxorubicin, Mean ± SD",5590 ± 1340 ng/mL
same,concentration at 2 h,"[2]; rabbit, vitreous, 0.05 mg, 50 ug into PC right eye, free drug, 2 hours, read-out: Residual vitreous doxorubicin, single sample",6540 ng/mL
same,concentration at 4 h,"[2]; rabbit, vitreous, 0.05 mg, 50 ug into PC right eye, free drug, 4 hours, read-out: Residual vitreous doxorubicin, Mean ± SD",3850 ± 640 ng/mL
same,concentration at 4 h,"[2]; rabbit, vitreous, 0.05 mg, 50 ug into PC right eye, free drug, 4 hours, read-out: Residual vitreous doxorubicin, single sample",4300 ng/mL
same,concentration at 8 h,"[2]; rabbit, vitreous, 0.05 mg, 50 ug into PC right eye, free drug, 8 hours, read-out: Residual vitreous doxorubicin, Mean ± SD",860 ± 160 ng/mL
same,concentration at 8 h,"[2]; rabbit, vitreous, 0.05 mg, 50 ug into PC right eye, free drug, 8 hours, read-out: Residual vitreous doxorubicin, single sample",980 ng/mL
same,concentration at 16 h,"[2]; rabbit, vitreous, 0.05 mg, 50 ug into PC right eye, free drug, 16 hours, read-out: Residual vitreous doxorubicin, Mean ± SD",240 ± 40 ng/mL
same,concentration at 16 h,"[2]; rabbit, vitreous, 0.05 mg, 50 ug into PC right eye, free drug, 16 hours, read-out: Residual vitreous doxorubicin, single sample",260 ng/mL
same,half-life,"[2]; rabbit, vitreous, 0.05 mg, PC injection, 50 ug, read-out: halflife of free doxorubicin (converted)",~3 h
same,ocular toxicity,[3],causes ocular inflammation and corneal edema
same,time of ocular inflammation and corneal edema after AC injection,[3],2 to 3 days
same,clinical tolerance of PC injection,[4],well tolerated
same,evidence of toxicity,[4],No evidence of toxicity
